A short description of data set [1]: Test of maintenance in solution at pH=6.7, active principle alone. It is filed as physicochemical. The note with it: absence of surfactant; pH 6.7, 2 hours at 37° C. The procedure:
Solutions were prepared containing 2 mg/ml of dronedarone. hydrochloride in hydrogenphosphate (NaH2PO4 buffered medium at pH=4.5 for 2 hours at 37° C. in the presence or absence of x % of nonionic hydrophilic surfactant to be studied, calculated on a weight basis relative to the active principle in base form.
This solution was then diluted to 1/10th in a neutral phosphate medium (Na2HPO4+NaH2PO4), the pH of the final solution being 6.7.
After 2 hours at 37° C., the solution was filtered through an Acrodisc brand 5 μm filter and the active principle in solution was assayed by UV spectrometry.

The nature of data set [2]: Behaviour in the presence of bile salts. It is filed as physicochemical. The note with it: bile salts such as sodium taurocholate.
Data set [3] can be described thus: Dissolution at pH=4 and dilution to 1/10 with buffer of pH=7. It is filed as physicochemical. The protocol: Thus, it is possible to dissolve 400 mg of dronedarone hydrochloride in 200 ml of aqueous medium buffered to pH=4 (aqueous 0.1 M NaH2PO4 solution).
On the other hand, in this medium diluted to 1/10 with an aqueous solution buffered to pH=7 (aqueous 0.1 M Na2HPO4 solution), dronedarone hydro-chloride precipitates (pH of the final medium: 6.7).

Data set [4] is described as follows: physchem. The note with it: aqueous medium.
Data set [5] can be described thus: Bioavailability after intake of food, man. Format: in vivo. The note with it: in particular fats. From the text: (§1) This behaviour in intestinal medium probably makes it possible to explain in vivo the low bio-availability of dronedarone hydrochloride and the differences observed after administration with or without food, since it has been observed that the bio-availability of dronedarone hydrochloride in dogs and in man is increased after the intake of food, in particular fats, which can greatly modify the precipitation kinetics of this active principle and also help to place it in emulsion form.

Data set [6] in a line: Bioavailability after intake of food, dogs. It is filed as in vivo. The note with it: in particular fats.
Text: as §1

Consider one compound from patent publication US20160338989A1, “SOLID PHARMACEUTICAL COMPOSITIONS CONTAINING BENZOFURAN DERIVATIVES” (SANOFI, priority 1997, published 2016).

Counter-ions that a name gives are not always drawn.

A word on the solubility: it is the dissolved amount per volume that the medium holds. Low readings indicate little dissolved substance, high ones much dissolved substance. In the case of `CCCCc1oc2ccc(NS(C)(=O)=O)cc2c1C(=O)c1ccc(OCCCN(CCCC)CCCC)cc1` [dronedarone hydrochloride, 2-n-butyl-3-[4-(3-di-n-butyl-aminopropoxy)benzoyl]-5-methylsul-phonamidobenzofuran], the “% of dronedarone hydrochloride in solution” value in data set [1] was determined as 5%. Also, the “behaviour in the presence of bile salts” value in data set [2] is given as “precipitates”. Moreover, the “behaviour on dilution to 1/10 with aqueous solution buffered to pH=7” value in data set [3] (0.1 M Na2HPO4, pH of the final medium 6.7) is “precipitates”. Further, in data set [3] (buffered to pH=4 (aqueous 0.1 M NaH2PO4 solution)), the “amount that can be dissolved in 200 ml of aqueous medium” value is 400 mg. Besides, the solubility was 1000 to 2000 µg/mL in data set [4] (aqueous buffer) and 10 µg/mL in data set [4] (pH 7, aqueous buffer). The “bioavailability after the intake of food” value in data set [5] and in data set [6] was “increased” in each case.
